Source: patent publication US12479847B2 (DANA-FARBER CANCER INSTITUTE, INC., priority 2019, dated 2025)
Read-outs that look alike come from different tables or passages of the source.

Key:
Assay in all cases: KINOMEscan (ScanMAX) kinase profiling
Assay type in all cases: binding
[1] = target: T1, panel of 468 kinases (Homo sapiens, UniProt P29597); conditions: 1 μM, read-out: % control
T1 construct: purchased KINOMEscan (ScanMAX) service

[2] = target: T2, panel of 468 kinases (Homo sapiens, UniProt P36888, N841I); conditions: FLT3(N841I); 1 μM; read-out: % control
T2 construct: purchased KINOMEscan (ScanMAX) service
T2 sequence (P36888 27-993 N841I): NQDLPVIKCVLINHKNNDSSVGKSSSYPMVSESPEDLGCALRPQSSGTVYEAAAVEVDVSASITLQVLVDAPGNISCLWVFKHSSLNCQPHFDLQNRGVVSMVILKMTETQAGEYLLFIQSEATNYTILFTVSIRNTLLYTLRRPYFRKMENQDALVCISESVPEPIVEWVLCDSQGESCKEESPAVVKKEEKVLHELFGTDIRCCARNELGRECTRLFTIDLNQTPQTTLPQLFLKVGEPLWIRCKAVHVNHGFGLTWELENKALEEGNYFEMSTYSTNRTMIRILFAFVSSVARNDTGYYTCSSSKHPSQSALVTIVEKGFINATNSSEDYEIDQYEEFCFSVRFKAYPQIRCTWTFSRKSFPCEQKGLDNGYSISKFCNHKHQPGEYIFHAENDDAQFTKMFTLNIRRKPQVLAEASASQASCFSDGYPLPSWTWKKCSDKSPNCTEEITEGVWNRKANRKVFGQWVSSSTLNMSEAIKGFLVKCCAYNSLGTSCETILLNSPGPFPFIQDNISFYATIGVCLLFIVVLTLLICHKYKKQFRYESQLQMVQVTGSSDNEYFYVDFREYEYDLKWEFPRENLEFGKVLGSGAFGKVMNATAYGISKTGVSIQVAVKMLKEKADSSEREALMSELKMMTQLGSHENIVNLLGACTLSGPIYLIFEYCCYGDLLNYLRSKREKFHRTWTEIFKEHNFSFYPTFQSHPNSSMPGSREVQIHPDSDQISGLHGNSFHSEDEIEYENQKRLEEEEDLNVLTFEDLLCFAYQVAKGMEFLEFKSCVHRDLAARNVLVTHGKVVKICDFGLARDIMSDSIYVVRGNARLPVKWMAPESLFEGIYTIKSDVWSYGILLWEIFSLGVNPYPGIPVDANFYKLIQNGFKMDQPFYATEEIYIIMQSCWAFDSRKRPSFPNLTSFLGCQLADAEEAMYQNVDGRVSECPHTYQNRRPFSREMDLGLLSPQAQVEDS

[3] = target: T3, panel of 468 kinases (Homo sapiens, UniProt P45984); conditions: JNK2; 1 μM; read-out: % control
T3 construct: purchased KINOMEscan (ScanMAX) service
T3 sequence (P45984 whole entry): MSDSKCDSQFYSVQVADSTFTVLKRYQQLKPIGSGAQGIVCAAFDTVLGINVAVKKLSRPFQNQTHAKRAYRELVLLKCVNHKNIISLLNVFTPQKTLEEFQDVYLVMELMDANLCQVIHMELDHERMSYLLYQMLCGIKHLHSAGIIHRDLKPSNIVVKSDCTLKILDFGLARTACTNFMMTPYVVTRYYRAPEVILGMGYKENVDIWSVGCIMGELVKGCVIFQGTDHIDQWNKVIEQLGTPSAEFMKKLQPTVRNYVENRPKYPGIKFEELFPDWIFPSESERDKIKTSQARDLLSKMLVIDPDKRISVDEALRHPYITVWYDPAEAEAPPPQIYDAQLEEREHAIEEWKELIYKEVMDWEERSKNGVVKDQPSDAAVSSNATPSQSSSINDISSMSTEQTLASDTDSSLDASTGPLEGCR

[4] = target: T4, panel of 468 kinases (Homo sapiens, UniProt P57059); conditions: SIK; 1 μM; read-out: % control
T4 construct: purchased KINOMEscan (ScanMAX) service
T4 sequence (P57059 whole entry): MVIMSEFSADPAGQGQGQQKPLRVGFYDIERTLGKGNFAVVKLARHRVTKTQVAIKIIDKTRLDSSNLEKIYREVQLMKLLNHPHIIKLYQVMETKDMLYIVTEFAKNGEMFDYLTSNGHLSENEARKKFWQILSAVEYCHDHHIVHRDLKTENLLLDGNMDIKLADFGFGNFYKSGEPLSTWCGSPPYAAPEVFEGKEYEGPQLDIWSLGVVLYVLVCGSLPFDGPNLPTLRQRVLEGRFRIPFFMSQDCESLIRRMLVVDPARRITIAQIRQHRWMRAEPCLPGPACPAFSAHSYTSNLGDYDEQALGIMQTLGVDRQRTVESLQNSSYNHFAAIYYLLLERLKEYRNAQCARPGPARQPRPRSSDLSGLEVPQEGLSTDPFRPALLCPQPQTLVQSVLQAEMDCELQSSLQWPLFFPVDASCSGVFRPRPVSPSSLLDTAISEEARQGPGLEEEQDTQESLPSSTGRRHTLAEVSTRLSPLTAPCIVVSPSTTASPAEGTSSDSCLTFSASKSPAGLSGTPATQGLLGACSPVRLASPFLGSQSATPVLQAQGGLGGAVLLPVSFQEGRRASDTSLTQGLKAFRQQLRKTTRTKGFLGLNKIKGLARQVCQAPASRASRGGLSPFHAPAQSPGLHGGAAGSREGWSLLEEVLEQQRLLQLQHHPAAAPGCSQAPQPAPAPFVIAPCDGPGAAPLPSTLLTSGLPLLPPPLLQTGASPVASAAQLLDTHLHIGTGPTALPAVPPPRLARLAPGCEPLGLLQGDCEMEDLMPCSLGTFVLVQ

[5] = target: T5, panel of 468 kinases (Homo sapiens, UniProt Q86Z02); conditions: HIPK1; 1 μM; read-out: % control
T5 construct: purchased KINOMEscan (ScanMAX) service
T5 sequence (Q86Z02 whole entry): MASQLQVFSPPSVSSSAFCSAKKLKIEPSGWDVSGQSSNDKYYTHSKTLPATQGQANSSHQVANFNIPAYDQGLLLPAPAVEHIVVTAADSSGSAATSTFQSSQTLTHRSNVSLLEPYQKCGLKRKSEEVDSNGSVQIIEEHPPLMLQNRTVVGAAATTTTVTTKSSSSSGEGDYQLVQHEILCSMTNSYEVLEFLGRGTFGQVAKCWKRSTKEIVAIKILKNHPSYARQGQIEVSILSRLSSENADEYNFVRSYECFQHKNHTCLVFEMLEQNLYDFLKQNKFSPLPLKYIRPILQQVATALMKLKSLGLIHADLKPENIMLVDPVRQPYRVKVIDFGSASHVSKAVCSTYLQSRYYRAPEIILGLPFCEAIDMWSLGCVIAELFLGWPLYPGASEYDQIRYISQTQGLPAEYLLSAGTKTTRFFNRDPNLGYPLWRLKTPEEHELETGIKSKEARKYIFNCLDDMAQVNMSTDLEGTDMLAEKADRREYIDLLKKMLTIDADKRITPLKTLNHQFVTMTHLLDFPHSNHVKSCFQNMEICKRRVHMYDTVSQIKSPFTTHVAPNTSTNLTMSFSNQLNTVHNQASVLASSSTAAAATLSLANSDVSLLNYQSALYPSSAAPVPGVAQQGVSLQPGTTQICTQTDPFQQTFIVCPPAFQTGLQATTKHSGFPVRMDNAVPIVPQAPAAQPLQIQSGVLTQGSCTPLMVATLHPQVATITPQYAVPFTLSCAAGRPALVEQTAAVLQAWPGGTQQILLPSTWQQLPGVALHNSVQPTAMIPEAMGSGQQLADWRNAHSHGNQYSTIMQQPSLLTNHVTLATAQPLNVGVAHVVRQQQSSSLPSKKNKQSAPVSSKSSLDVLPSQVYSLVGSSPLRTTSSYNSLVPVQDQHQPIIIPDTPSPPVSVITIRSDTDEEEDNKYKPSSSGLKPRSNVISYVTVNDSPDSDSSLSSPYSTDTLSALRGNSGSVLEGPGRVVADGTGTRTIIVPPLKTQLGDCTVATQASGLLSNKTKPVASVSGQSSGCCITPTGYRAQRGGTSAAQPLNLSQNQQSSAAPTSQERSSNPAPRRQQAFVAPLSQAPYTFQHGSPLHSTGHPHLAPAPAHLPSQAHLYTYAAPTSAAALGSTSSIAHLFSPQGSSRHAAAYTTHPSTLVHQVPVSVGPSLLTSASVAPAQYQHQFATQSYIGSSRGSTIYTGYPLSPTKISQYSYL

[6] = target: T6, panel of 468 kinases (Homo sapiens, UniProt Q8N568); conditions: DCAMKL2; 1 μM; read-out: % control
T6 construct: purchased KINOMEscan (ScanMAX) service
T6 sequence (Q8N568 whole entry): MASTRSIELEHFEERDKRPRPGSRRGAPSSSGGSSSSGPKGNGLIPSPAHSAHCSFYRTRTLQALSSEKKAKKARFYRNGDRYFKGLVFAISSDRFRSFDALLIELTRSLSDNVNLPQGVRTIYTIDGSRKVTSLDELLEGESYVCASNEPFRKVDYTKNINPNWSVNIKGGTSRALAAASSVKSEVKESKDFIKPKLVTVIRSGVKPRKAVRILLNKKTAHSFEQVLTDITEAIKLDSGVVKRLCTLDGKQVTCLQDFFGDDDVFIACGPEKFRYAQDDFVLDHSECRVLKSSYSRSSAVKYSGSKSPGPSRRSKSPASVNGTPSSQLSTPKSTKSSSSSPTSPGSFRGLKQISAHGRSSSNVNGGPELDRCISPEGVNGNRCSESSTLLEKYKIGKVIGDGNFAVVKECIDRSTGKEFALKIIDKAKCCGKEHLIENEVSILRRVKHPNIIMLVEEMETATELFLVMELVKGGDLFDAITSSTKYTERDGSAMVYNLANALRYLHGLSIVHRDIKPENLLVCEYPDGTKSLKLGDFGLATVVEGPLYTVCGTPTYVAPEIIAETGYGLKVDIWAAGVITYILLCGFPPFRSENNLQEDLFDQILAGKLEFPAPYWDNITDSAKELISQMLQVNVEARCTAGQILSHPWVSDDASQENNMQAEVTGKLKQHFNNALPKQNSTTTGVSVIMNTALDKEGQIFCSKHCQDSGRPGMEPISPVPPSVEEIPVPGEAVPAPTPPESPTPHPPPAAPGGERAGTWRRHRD

[7] = target: T7, panel of 468 kinases (Homo sapiens, UniProt Q8NG66); conditions: NEK11; 1 μM; read-out: % control
T7 construct: purchased KINOMEscan (ScanMAX) service
T7 sequence (Q8NG66 1-645): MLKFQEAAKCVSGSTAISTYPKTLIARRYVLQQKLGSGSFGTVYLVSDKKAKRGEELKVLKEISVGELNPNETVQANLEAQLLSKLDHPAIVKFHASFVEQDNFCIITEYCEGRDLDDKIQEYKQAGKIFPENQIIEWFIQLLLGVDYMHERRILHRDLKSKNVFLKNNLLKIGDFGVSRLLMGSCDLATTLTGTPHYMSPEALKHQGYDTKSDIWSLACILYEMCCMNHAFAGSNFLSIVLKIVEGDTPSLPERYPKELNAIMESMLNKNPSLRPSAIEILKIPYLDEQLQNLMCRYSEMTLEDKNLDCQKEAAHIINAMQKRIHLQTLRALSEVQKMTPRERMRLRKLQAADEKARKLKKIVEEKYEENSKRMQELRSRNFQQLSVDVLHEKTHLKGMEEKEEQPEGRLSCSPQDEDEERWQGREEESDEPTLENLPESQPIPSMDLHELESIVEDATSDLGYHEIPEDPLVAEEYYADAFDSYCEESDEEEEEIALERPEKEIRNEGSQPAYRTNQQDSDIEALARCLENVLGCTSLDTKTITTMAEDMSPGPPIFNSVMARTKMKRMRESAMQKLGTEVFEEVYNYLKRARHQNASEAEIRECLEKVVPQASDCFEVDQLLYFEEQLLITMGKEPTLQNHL

T1 sequence (P29597 whole entry): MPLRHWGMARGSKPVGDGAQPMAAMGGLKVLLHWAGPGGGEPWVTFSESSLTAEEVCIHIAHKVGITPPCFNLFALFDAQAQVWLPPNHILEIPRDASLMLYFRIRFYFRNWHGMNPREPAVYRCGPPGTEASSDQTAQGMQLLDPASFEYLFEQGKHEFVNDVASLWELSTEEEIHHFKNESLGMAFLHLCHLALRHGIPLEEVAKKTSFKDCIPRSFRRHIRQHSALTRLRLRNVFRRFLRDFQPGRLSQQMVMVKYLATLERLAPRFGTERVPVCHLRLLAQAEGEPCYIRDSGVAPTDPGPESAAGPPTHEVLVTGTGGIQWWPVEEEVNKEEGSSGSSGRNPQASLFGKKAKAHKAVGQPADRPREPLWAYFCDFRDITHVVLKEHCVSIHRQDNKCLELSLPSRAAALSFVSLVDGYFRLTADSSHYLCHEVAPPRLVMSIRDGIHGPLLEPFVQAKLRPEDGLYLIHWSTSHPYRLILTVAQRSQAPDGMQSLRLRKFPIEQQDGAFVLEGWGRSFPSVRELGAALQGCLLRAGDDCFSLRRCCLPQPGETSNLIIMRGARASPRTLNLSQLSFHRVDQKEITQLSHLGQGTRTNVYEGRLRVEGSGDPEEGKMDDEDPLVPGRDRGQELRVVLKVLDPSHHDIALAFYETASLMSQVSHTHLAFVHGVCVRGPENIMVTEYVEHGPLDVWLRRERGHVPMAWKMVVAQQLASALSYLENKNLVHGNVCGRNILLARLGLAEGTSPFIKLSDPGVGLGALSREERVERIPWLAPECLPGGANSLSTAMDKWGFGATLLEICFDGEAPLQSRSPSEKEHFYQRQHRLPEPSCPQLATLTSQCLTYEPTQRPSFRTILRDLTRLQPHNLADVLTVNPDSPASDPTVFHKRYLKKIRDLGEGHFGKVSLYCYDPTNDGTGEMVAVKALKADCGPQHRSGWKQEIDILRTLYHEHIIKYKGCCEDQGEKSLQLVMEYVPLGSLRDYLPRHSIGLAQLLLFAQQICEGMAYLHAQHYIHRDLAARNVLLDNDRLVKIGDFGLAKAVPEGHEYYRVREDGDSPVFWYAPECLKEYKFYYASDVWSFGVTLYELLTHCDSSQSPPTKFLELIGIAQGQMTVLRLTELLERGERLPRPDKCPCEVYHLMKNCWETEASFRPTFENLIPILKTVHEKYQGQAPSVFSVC

Structure (SMILES) | remaining binding at 1 µM ([1]; TYK2(JH1domain-catalytic)) [%] | remaining binding at 1 µM ([1]; TYK2(JH2domain-pseudokinase)) [%] | remaining binding at 1 µM [2] [%] | remaining binding at 1 µM [3] [%] | remaining binding at 1 µM [4] [%] | remaining binding at 1 µM [5] [%] | remaining binding at 1 µM [6] [%] | remaining binding at 1 µM [7] [%]
CNc1nc(Nc2ccc(S(=O)(=O)N3CCC(N4CCOCC4)CC3)cc2OC)nc2[nH]cc(Cl)c12 [Compound 12, 5-chloro-N2-(2-methoxy-4-((4-morpholinopiperidin-1-yl)sulfonyl)phenyl)-N4-methyl-7H-pyrrolo[2,3-d]pyrimidine-2,4-diamine] | 90 | 88 | 85 | 26 | 100 | 48 | 96 | 96
CNc1nc(Nc2ccc(P3(=O)CCN(C4CCOCC4)CC3)cc2OC)nc2[nH]cc(Cl)c12 [Compound 77, 4-(4-((5-chloro-4-(methylamino)-7H-pyrrolo[2,3-d]pyrimidin-2-yl)amino)-3-methoxyphenyl)-1-(tetrahydro-2H-pyran-4-yl)-1,4-azaphosphinane 4-oxide] | 66 | 82 | 99 | 7.5 | 100 | 32 | 100 | 100
CNc1nc(Nc2ccc(C(=O)N3CCC(N4CCOCC4)CC3)c3c2OCO3)nc2[nH]cc(Cl)c12 [Compound 75, (7-((5-chloro-4-(methylamino)-7H-pyrrolo[2,3-d]pyrimidin-2-yl)amino)benzo[d][1,3]dioxol-4-yl)(4-morpholinopiperidin-1-yl)methanone] | 46 | 100 | 65 | 0 | 100 | 23 | 99 | 100
